According to US10851073B2, “Protein tyrosine phosphatase inhibitors and methods of use thereof” (Calico Life Sciences LLC, priority 2019, dated 2020):

Target: T1, His tagged PTPN2 (TC45) protein (Homo sapiens, UniProt P17706)
T1 construct: made in house
T1 sequence (P17706 with tags, fused parts or gaps isoform P17706-2): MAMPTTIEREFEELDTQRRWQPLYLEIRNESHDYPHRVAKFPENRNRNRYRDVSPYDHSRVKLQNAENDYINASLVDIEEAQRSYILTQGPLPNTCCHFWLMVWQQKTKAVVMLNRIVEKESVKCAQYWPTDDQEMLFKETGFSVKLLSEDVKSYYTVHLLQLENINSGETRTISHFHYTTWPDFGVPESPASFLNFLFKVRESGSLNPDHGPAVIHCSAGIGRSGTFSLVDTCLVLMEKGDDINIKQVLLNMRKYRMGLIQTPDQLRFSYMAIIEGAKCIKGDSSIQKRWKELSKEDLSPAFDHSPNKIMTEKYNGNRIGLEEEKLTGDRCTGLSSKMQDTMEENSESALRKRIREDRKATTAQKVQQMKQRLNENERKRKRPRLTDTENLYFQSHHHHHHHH
Experiment: Mobility shift assay used to determine potency of PTPN2 inhibitors
Format: biochemical
Details: enzyme 0.5 nM, substrate 2 μM; read-out: PTPN2 MSA IC50
Description: Example 227: Mobility Shift Assay Used to Determine Potency of PTPN2 Inhibitors
Compound activity was determined using in house His tagged PTPN2 (TC45) protein (SEQ ID NO: 1) in an in vitro enzymatic reaction. The enzymatic assay used to determine activity was a mobility shift assay using a LabChip EZ Reader by Caliper Life Sciences. The enzymatic reaction was carried out in assay buffer (50 mM HEPES pH 7.5, 1 mM EGTA, 10 mM EDTA, 0.01% Tween® 20, and 2 mM DTT). The compounds were dispensed on a white 384 well ProxiPlate™ (PerkinElmer Catalog #6008289) plate using the Labcyte Echo at varying concentrations (12 point, 1:3 dilution). The enzyme (at 0.5 nM) was incubated with compound for 10 minutes at room temperature. Then the substrate (phosphorylated insulin receptor probe sequence: ((OG488)-(NH—CH2—CH2—O—CH2—CH2—O—CH2—CO)-T-R-D-I-(PY)-E-T-D-Y-Y-R-K-K-NH2) (SEQ ID NO: 2) was added at 2 μM to the plates and incubated for another 10 minutes at room temperature. Finally, a quench solution (water and 4-bromo-3-(2-oxo-2-propoxyethoxy)-5-(3-{[1-(phenylmethanesulfonyl)piperidin-4-yl]amino}phenyl)thiophene-2-carboxylic acid) was added to the plates, which were then run on the EZ Reader (excitation 488 nm, emission 530 nm) to measure % conversion (the amount of phosphorylated substrate which was de-phosphorylated by PTPN2). […] The % inhibition was then used to calculate the IC50 values.

Row | SMILES | IC50
1 | NCC1Cc2cc(O)c(N3CC(=O)NS3(=O)=O)c(F)c2C1 (centres unmarked) [Compound 267, 5-[2-(aminomethyl)-4-fluoro-6-hydroxy-2,3-dihydro-1H-inden-5-yl]-1λ^6,2,5-thiadiazolidine-1,1,3-trione 2,2,2-trifluoroacetate] | 10 to 100 nM
2 | O=C1CN(c2c(O)cc3c(c2F)CN(C(=O)NCC2CCCO2)CC3)S(=O)(=O)N1 (centres unmarked) [Compound 263, 8-fluoro-6-hydroxy-N-[(oxolan-2-yl)methyl]-7-(1,1,4-trioxo-1λ^6,2,5-thiadiazolidin-2-yl)-3,4-dihydroisoquinoline-2(1H)-carboxamide] | 10 to 100 nM
3 | COC(CCNC1CCc2cc(O)c(N3CC(=O)NS3(=O)=O)c(F)c2C1)C(F)(F)F (centres unmarked) [Compound 152, 5-{1-fluoro-3-hydroxy-7-[(4,4,4-trifluoro-3-methoxybutyl)amino]-5,6,7,8-tetrahydronaphthalen-2-yl}-1λ^6,2,5-thiadiazolidine-1,1,3-trione] | 1 to 10 nM
4 | CC(C)CCCC1CCc2cc(O)c(N3CC(=O)NS3(=O)=O)c(F)c2C1 (centres unmarked) [Compound 323, 5-[1-fluoro-3-hydroxy-7-(4-methylpentyl)-5,6,7,8-tetrahydronaphthalen-2-yl]-1λ^6,2,5-thiadiazolidine-1,1,3-trione] | 1 to 10 nM
5 | O=C1CN(c2c(O)cc3c(c2F)CC(NCC2CC2)CC3)S(=O)(=O)N1 (centres unmarked) [Compound 103, 5-{7-[(cyclopropylmethyl)amino]-1-fluoro-3-hydroxy-5,6,7,8-tetrahydronaphthalen-2-yl}-1λ^6,2,5-thiadiazolidine-1,1,3-trione] | 10 to 100 nM
6 | O=C1CN(c2c(O)cc3c(c2F)CC(NCCOC(F)(F)F)CC3)S(=O)(=O)N1 (centres unmarked) [Compound 169, 5-(1-fluoro-3-hydroxy-7-{[2-(trifluoromethoxy)ethyl]amino}-5,6,7,8-tetrahydronaphthalen-2-yl)-1λ^6,2,5-thiadiazolidine-1,1,3-trione] | 10 to 100 nM

System: B16F10 mouse melanoma cells
Experiment: B16F10 IFNγ-induced cellular growth inhibition assay
Format: cell-based
Details: B16-F10, with 0.5 ng/mL IFNγ, read-out: B16F10 GI IC50
Description: Example 229: B16F10 IFNγ-Induced Cellular Growth Inhibition Assay B16F10 mouse melanoma cells (ATCC Cat^# CRL-6475, Manassas, Va.) were seeded at a density of 500 cells per well in a 384-well clear bottom plate (Corning Cat^#3765, Corning, N.Y.) in 25 μL total volume of DMEM+10% FBS (Sigma Cat^# D6429 and Sigma Cat^# F4135, St. Louis, Mo.). Cells were allowed to adhere overnight at 37° C.+5% CO2. On the following day, 12.5 μL of mouse IFNγ (RD systems Cat^#485-MI/CF, Minneapolis, Minn.) was added to half of the plate (columns 13-24) at a concentration of 2 ng/mL for a final assay concentration of 0.5 ng/mL of IFNγ. Media only (12.5 μL of DMEM+10% FBS) was added to the remainder of the plate (columns 1-12). Next, compounds resuspended in DMSO (Sigma Cat^# D2650) at 100 mM were diluted in semi-log dilutions in DMSO ranging from 100 mM to 0.001 mM and DMSO only controls were included. The compound/DMSO dilutions were further diluted 1:250 in DMEM+10% FBS, and 12.5 μL of these dilutions were added in triplicates to cells of both treatment arms (with and without IFNγ). Final compound concentrations ranged from 100 μM to 0.001 μM with a final DMSO concentration of 0.1%. Compounds were only dosed in the inner 240 wells, avoiding the outer 2-well perimeter of the plate to minim/ze edge effects. Finally, the plate was loaded into an IncuCyte® S3 Live Cell Analysis System (Essen Bioscience-Sartorius, Ann Arbor, Mich.) maintained in a 37° C.+5% CO2 incubator, allowed to equilibrate for 2 hours, and imaged every 6 hours for 5 days. Confluence over time for compound dilutions in the presence and absence of IFNγ was measured. Growth inhibition values were obtained when the “DMSO/no IFNγ” control reached confluence >95%. At these time points, for each compound the percent growth inhibition at every compound dose level was calculated relative to the “DMSO/with IFNγ” control and used to determine the IC50.

Row | SMILES | IC50
7 | O=C1CN(c2c(O)cc3c(c2F)CNCC3)S(=O)(=O)N1 [Compound 143, 5-(8-fluoro-6-hydroxy-1,2,3,4-tetrahydroisoquinolin-7-yl)-1λ^6,2,5-thiadiazolidine-1,1,3-trione] | 1 to 10 µM
8 | Cc1noc(C)c1CCN1Cc2c(cc(O)c(N3CC(=O)NS3(=O)=O)c2F)C(F)(F)C1 [Compound 306, 5-{2-[2-(3,5-dimethyl-1,2-oxazol-4-yl)ethyl]-4,4,8-trifluoro-6-hydroxy-1,2,3,4-tetrahydroisoquinolin-7-yl}-1λ^6,2,5-thiadiazolidine-1,1,3-trione] | > 100 µM
9 | CC1(C)CCc2c(cc(O)c(N3CC(=O)NS3(=O)=O)c2F)O1 [Compound 112, 5-(5-fluoro-7-hydroxy-2,2-dimethyl-3,4-dihydro-2H-1-benzopyran-6-yl)-1λ^6,2,5-thiadiazolidine-1,1,3-trione] | 10 to 100 µM
10 | CC(C)CCCN1CCc2cc(O)c(N3CC(=O)NS3(=O)=O)c(F)c2C1 [Compound 145, 5-[8-fluoro-6-hydroxy-2-(4-methylpentyl)-1,2,3,4-tetrahydroisoquinolin-7-yl]-1λ^6,2,5-thiadiazolidine-1,1,3-trione] | 1 to 10 µM
11 | CC(C)(C)OC(=O)N1CCc2cc(O)c(N3CC(=O)NS3(=O)=O)c(F)c2C1 [Compound 221, tert-butyl 8-fluoro-6-hydroxy-7-(1,1,4-trioxo-1λ^6,2,5-thiadiazolidin-2-yl)-3,4-dihydroisoquinoline-2(1H)-carboxylate] | 1 to 10 µM
12 | CC(C)CCNC(=O)N1CCc2cc(O)c(N3CC(=O)NS3(=O)=O)c(F)c2C1 [Compound 205, 8-fluoro-6-hydroxy-N-(3-methylbutyl)-7-(1,1,4-trioxo-1λ^6,2,5-thiadiazolidin-2-yl)-3,4-dihydroisoquinoline-2(1H)-carboxamide] | 1 to 10 µM
13 | Cn1cc(CCN2CCc3cc(O)c(N4CC(=O)NS4(=O)=O)c(F)c3C2)cn1 [Compound 252, 5-{8-fluoro-6-hydroxy-2-[2-(1-methyl-1H-pyrazol-4-yl)ethyl]-1,2,3,4-tetrahydroisoquinolin-7-yl}-1λ^6,2,5-thiadiazolidine-1,1,3-trione] | 10 to 100 µM
14 | O=C1CN(c2c(O)cc3c(c2F)CN(C(=O)NCC2CC2)CC3)S(=O)(=O)N1 [Compound 258, N-(cyclopropylmethyl)-8-fluoro-6-hydroxy-7-(1,1,4-trioxo-1λ^6,2,5-thiadiazolidin-2-yl)-3,4-dihydroisoquinoline-2(1H)-carboxamide] | 1 to 10 µM
15 | Cc1nn(C(F)F)c(C)c1CCN1CCc2cc(O)c(N3CC(=O)NS3(=O)=O)c(F)c2C1 [Compound 238, 5-(2-{2-[1-(difluoromethyl)-3,5-dimethyl-1H-pyrazol-4-yl]ethyl}-8-fluoro-6-hydroxy-1,2,3,4-tetrahydroisoquinolin-7-yl)-1λ^6,2,5-thiadiazolidine-1,1,3-trione] | 1 to 10 µM
16 | O=C1CN(c2c(O)cc3c(c2F)CC(NCCOC(F)(F)F)CC3)S(=O)(=O)N1 (centres unmarked) [Compound 169, 5-(1-fluoro-3-hydroxy-7-{[2-(trifluoromethoxy)ethyl]amino}-5,6,7,8-tetrahydronaphthalen-2-yl)-1λ^6,2,5-thiadiazolidine-1,1,3-trione] | 10 to 100 µM

Now from value to compound:

Row | IC50 | SMILES
17 | 1 to 10 µM | O=C1CN(c2c(O)cc3c(c2F)CN(CCCC2CCOCC2)CC3)S(=O)(=O)N1 [Compound 196, 5-{8-fluoro-6-hydroxy-2-[3-(oxan-4-yl)propyl]-1,2,3,4-tetrahydroisoquinolin-7-yl}-1λ^6,2,5-thiadiazolidine-1,1,3-trione]
18 | 1 to 10 µM | Cc1nn(C)c(C)c1CCN1CCc2cc(O)c(N3CC(=O)NS3(=O)=O)c(F)c2C1 [Compound 209, 5-{8-fluoro-6-hydroxy-2-[2-(1,3,5-trimethyl-1H-pyrazol-4-yl)ethyl]-1,2,3,4-tetrahydroisoquinolin-7-yl}-1λ^6,2,5-thiadiazolidine-1,1,3-trione]
19 | < 1 µM | Cc1noc(C)c1CCN1CCc2cc(O)c(N3CC(=O)NS3(=O)=O)c(F)c2C1 [Compound 211, 5-{2-[2-(3,5-dimethyl-1,2-oxazol-4-yl)ethyl]-8-fluoro-6-hydroxy-1,2,3,4-tetrahydroisoquinolin-7-yl}-1λ^6,2,5-thiadiazolidine-1,1,3-trione]
20 | 1 to 10 µM | CC(C)OCCCN1CCc2cc(O)c(N3CC(=O)NS3(=O)=O)c(F)c2C1 [Compound 251, 5-(8-fluoro-6-hydroxy-2-{3-[(propan-2-yl)oxy]propyl}-1,2,3,4-tetrahydroisoquinolin-7-yl)-1λ^6,2,5-thiadiazolidine-1,1,3-trione]
21 | 1 to 10 µM | CCn1nc(C)c(CCN2CCc3cc(O)c(N4CC(=O)NS4(=O)=O)c(F)c3C2)c1C [Compound 276, 5-{2-[2-(1-ethyl-3,5-dimethyl-1H-pyrazol-4-yl)ethyl]-8-fluoro-6-hydroxy-1,2,3,4-tetrahydroisoquinolin-7-yl}-1λ^6,2,5-thiadiazolidine-1,1,3-trione]
22 | < 1 µM | O=C1CN(c2c(O)cc3c(c2F)C[C@H](NCCC2CC(F)(F)C2)CC3)S(=O)(=O)N1 [Compound 202, 5-[(7R)-7-{[2-(3,3-difluorocyclobutyl)ethyl]amino}-1-fluoro-3-hydroxy-5,6,7,8-tetrahydronaphthalen-2-yl]-1λ^6,2,5-thiadiazolidine-1,1,3-trione]
23 | 1 to 10 µM | O=C1CN(c2c(O)cc3c(c2F)CC(NCC2CC2)CC3)S(=O)(=O)N1 (centres unmarked) [Compound 103, 5-{7-[(cyclopropylmethyl)amino]-1-fluoro-3-hydroxy-5,6,7,8-tetrahydronaphthalen-2-yl}-1λ^6,2,5-thiadiazolidine-1,1,3-trione]
